For series [1], the system named is normal murine HSPCs. Put plainly: Triple coculture (LSCs and HSPCs on primary MSCs), normal HSPCs. The following applies: read-out: Normal HSPC* IC50.
Experimental: (§1) As in the original assay approach, treatment of these triple cocultures began one day after hematopoietic cell plating and was assessed 5 days later.
(§2) An in vitro therapeutic index was determined for each compound, a comparative measure of the potential for anti-LSC efficacy relative to the potential for dose-limiting toxicities to normal HSCs (myeloablation), or to normal progenitors (myelosuppression). Specifically, ratios were created using the IC50s for primary murine HSPCs in triple coculture as the numerator, and the IC50s for primary murine leukemia inhibition in triple coculture as the denominator, toward assessing the potential for HSC harm relative to LSC inhibition.
Series [2] concerns normal primary human CD34+ cells. The series is described as follows: Alamar Blue assay for human progenitor cell toxicity. The following applies: for IC50: read-out: Normal Progenitor* IC50. As to the method:
Normal G-CSF mobilized CD34+ cells (AllCells, LLC, Emeryville, Calif.), normal BM CD34 cells (MSKCC, New York, N.Y.) and cord blood CD34+ cells (New York Blood Center, New York) were previously frozen and thawed out before the proliferation assay was set up in 384-well plates. Briefly, 50 μl of IMDM medium containing 20% FBS (Gemini Bio-Product, West Sacramento, Calif.), 20 ng/ml of recombinant human Kit Ligand (rhKL), 20 ng/ml of rh-Interleukin-3 (rhIL-3), 20 ng/ml of rhG-CSF, 6 units/ml of rhEPO, 10-42-mercaptoethanol, 2 mM glutamine, 50 u/ml penicillin, 50 μg/ml streptomycin, 1,000 viable CD34+ cells in the presence of various doses of Broad compounds (drug-treated group) or 0.1% DMSO (control group) were incubated at 37° C. After 6 days, 5 μl of AlamaBlue (AbD Serotec, Raleigh, N.C.) was added to each well and further incubated overnight. The fluorescence signal was then measured with GeminiXS microplate reader (Molecular Devices, Sunnyvale, Calif.). Effect of small molecules to proliferation of CD34+ cells was reported as Relative fluorescent intensity (Relative Fluorescent Intensity=Fluorescent Intensity (drug-treated)/Fluorescent Intensity (Control).
Finally, experiments were performed to examine whether BRD7116 or lovastatic acid were likely to cause myelosuppression, a type of deleterious toxicity in patients resulting from harm to normal human hematopoietic progenitor cells. This consideration is especially important as conventional therapies currently used in the clinic have myelosuppressive toxicities that are dose-limiting. To this end, a hematopoietic progenitor assay was employed to compare the effects of BRD7116 and lovastatic acid to effects given by such known myelosuppressive compounds. In this assay, normal primary human CD34^+ cord blood cells were plated with cytokines in suspension, treated with compound for 7 days, and then examined for viability relative to DMSO treated controls.
(In general: The colour change of resazurin is a common sign of viable cells or microbes.)

For series [3], the system named is MLL-AF9 LSC. The series is described as follows: Triple coculture (LSCs and HSPCs on primary MSCs), leukemia cells. The settings on record: murine LSCs in triple coculture with HSPCs on MSCs. Type of series: cell-based, murine.
Experimental: as §1, §2
For series [4], the system named is human AML cell lines (U937, THP-1, NOMO-1, SKM-1, NB4, and OCI-AML3). The series is described as follows: AML cell line screen (CellTiter-Glo). Type of series: cell-based. The following applies: for IC50: Homo sapiens, AML cell line screens, read-out: IC50s across 6 cell lines. As to the method: Nomo-1, THP-1, SKM-1, NB4, and U937 cell lines were grown in RPMI (12-702F, BioWhittaker), 10% FBS (10082-147, Gibco), and 1% Pen-Strep (15140-122, Gibco) and OCI-AML3 was grown in α-MEM (36453, Stem Cell Technologies), 10% FBS (10082-147, Gibco), and 1% Pen-Strep (15140-122, Gibco). 3000 cells were plated in each well in 30 μl in white, 384 well plates (3570, Corning) and 16 hours later 100 nl of the appropriate compound was added to each well. 72 hours later the plates were cooled to room temperature and 30 μl of CellTiterGlo reagent (G7570, Promega) diluted 1:1 in PBS was added to each well and the plates were analyzed using an Envision (Perkin Elmer).
First, a traditional small molecule screen was performed on six human AML cell lines (U937, THP-1, NOMO-1, SKM-1, NB4, and OCI-AML3), two of which (NOMO-1, THP-1) contain the same oncogene (MLL-AF9) used to generate the primary leukemia cells utilized in our coculture system. The cell lines were grown in isolation under standard conditions, treated with the 160 compounds at 8-point dose, and three days later the viability of each well was quantified using CellTiter-Glo reagent. The IC50s from these AML cell line screens were then compared to the IC50s from the coculture screens. […] As discussed, the existence of such differentially-active compounds is consistent with our hypothesis that coculturing can expand the pool of therapeutically promising compounds identified in high throughput format.
On the technique in general: ATP-based viability assays read luminescence as a measure of living cells.

The test system of series [5] is LSC-enriched leukemia cells (MLL-AF9). The series is described as follows: Leukemia coculture assay on primary MSC stroma (cobblestoning readout). The settings on record: for IC50: Mus musculus; for leukemia-selective activity in coculture vs normal HSPCs: primary MSC stroma. In kind it is cell-based, murine. As to the method: Whole bone marrow were harvested from C57/B16 actin-dsRed mice (006051, Jackson Labs), subjected to red blood cell lysis (Qiagen), then granulocyte-macrophage progenitors (GMPs) were isolated by Fluorescence-activated cell sorting (FACsAria, Becton Dickinson). GMPs were spinfected twice (2500 rpm, 90 min, 37 C) in the presence of mIL3 (10 ng/ml, Peprotech), mIL6 (10 ng/ml, Peprotech), and mSCF (10 ng/ml, Peprotech) with pMSCV-MLL-AF9-Neo virus then transplanted into lethally irradiated C57/B16 recipients. After disease onset, the spleens were harvested and transplanted into sublethally irradiated secondary recipients. Subsequent transplantation of bulk spleen cells from leukemic secondary mice was repeated twice to generate leukemic GMPs from quaternary transplant leukemic mouse bone marrow.
Long bones and hips from moribund leukemic mice were harvested, cleaned, crushed and sequentially passed through 100 and 70 μM filters (Falcon). The cells were RBC lysed (Qiagen) and stained in PBS+2% FBS (Omega). Antibodies included lineage markers CD4, CD8, Gr1, Mac1, IL-7R, and Ter119 (Caltag), c-kit (17-1172-83, eBioscience), Sca-1 (11-5981-82, eBioscience), CD34 (11-0341-85, eBioscience), and CD16/32 (25-0161-82, eBioscience). Hoechst 33258 (H21491, Invitrogen) was also used, to identify live cells. Cells were sorted on a FacsAria II (Becton Dickinson).
The humerii, tibiae, ilia, femurs, and spine were isolated from actin-GFP mice (000329, Jackson Lab) crushed using a mortar and pestle, washed in phosphate-buffered saline (PBS) without magnesium and calcium (Gibco) with 0.5% fetal bovine serum (FBS) (HyClone) and filtered through a 70-μm filter. Red blood cell lysis was performed with ammonium-chloride/potassium-chloride (ACK) lysing buffer (Lonza), the cells were resuspended in α-MEM (StemCell Technologies), 20% FBS (HyClone) and 1× Pen-Strep (CellGro), plated in 25 ml in 150-cm^2 tissue-culture flasks (three per mouse), and incubated at 33° C. with 5% CO2. After 2-3 days, the medium was replaced with fresh α-MEM with 20% FBS. After 8-14 days, the cells were rinsed, split by trypsinization (CellGro), pooled, filtered through a 70 μm filter, replated at 3-4 million cells per 150-cm^2 tissue-culture flask, and grown at 33° C. with 5% CO2 for 3-4 days until nearly confluent. The cells were trypsinized, filtered, and resuspended in 0.5% FBS in PBS with biotin-conjugated anti-mouse CD105 antibody (eBioscience) for 15-30 minutes at room temperature. The CD105-labeled cells were incubated with Dynabead M-280 streptavidin-linked magnetic beads (Invitrogen) for 15-30 minutes at 4° C. with agitation and isolated using magnetic separation and rinsed once. The CD105^+ cell fraction was replated at 1-2 million cells per 150-cm^2 tissue-culture flask and incubated at 33° C. with 5% CO2 for 2-3 days.
The MSCs were trypsinized, filtered, diluted in phenol-red-free alpha-MEM with 20% FBS, and plated (30 μl for a total of 2000 cells per well) on 384-well clear-bottomed black tissue-culture treated plate (3712, Corning) pretreated with fibronectin (Millipore). Plate covers (VWR) were added, the plates were spun and at 500 with slow braking, and the cells were incubated at room temperature for 60-90 minutes before incubation at 33° C. with 5% CO2 for 3 days prior to hematopoietic cell plating. […]

Series [6] deals with primary CD34+ cells from normal human cord blood. The series is described as follows: Human CD34+ CAFC assay, normal cells. The settings on record: 1.25 μM to 10 μM, 18 hours exposure.
Experimental: Samples were centrifuged over Ficoll-Paque PLUS (GE Heathcare) step gradient (2000×g for 30 min in 50 ml tubes) to obtain mononuclear cells and then CD34^+ cells were selected with immunomagnetic beads (MACS Cell Separation, Miltenyi Biotec, Auburn, Calif.), except in one case, NPM1 mutation, which was CD34^− by flow cytometry and mononuclear cells were used. 50,000 cells were placed into 12.5 cm^2 flasks (Becton Dickinson Labware, Franklin Lakes, N.J.) in co-culture with the MS-5 mouse bone marrow-derived stromal cell line (kindly provided by Dr. Itoh, Dept. of Biology, Niigata University, Japan) and DMSO control and the number of final cobblestones was later read. The number of cells needed to form one cobblestone was then placed in triplicate for each sample with each drug at serial drug dilutions from 10 μM to 0.63 μM as well as with DMSO 0.5% for control purposes and incubated overnight with Iscove's modified Dulbecco's medium (IMDM, in house media preparation laboratory)+20% fetal calf serum (FCS, Atlanta Biologicals, Lawrenceville, Ga.) with glutamine (2 mM/ml, in house media preparation laboratory), monothioglycerol (MTG, 10 nM/ml, Sigma Cell Culture, St. Louis Mo.), c-Kit ligand (20 ng/ml, Amgen, Thousand Oaks, Calif.), Flt ligand (20 ng/ml, Imclone, Bridgewater, N.J.), TPO (20 ng/ml, Amgen) and IL-3 (20 ng/ml, Amgen). […]
(§3) The cells were treated with compound or DMSO carrier control at four doses (ranging from 1.25 μM to 10 μM) in triplicate for 18 hours, washed thoroughly, then plated onto human stromal MS-5 monolayers (Itoh, K., Tezuka, H., Sakoda, H., Konno, M., Nagata, K., Uchiyama, T., Uchino, H., and Mori, K. J. (1989). Exp Hematol 17, 145-153.) and maintained in coculture with one subsequent half media change. After 5 weeks (2 weeks for the FLT3-ITD sample (Moore, M. A., Dorn, D. C., Schuring a, J. J., Chung, K. Y., and Morrone, G. (2007). Exp Hematol 35, 105-116.)), cobblestone formation was determined, and dose-response curves against the 7 cell types were generated for each compound.
Series [7] relates to normal HSPCs. The series is described as follows: Normal HSPC coculture on primary MSC stroma. The settings on record: Mus musculus. As to the method: The material was cleaned, crushed and sequentially passed through 100 and 70 μM filters (Falcon). […] The biotin-labeled cells were spun down, resuspended in 0.5% FBS in PBS, and incubated for 15-30 minutes at 4° C. with agitation with 1 mL of Dynabead M-280 streptavidin-linked magnetic beads per 4 mice. The bead-linked cells were depleted using magnetic separation and rinsed once. The lineage- and CD48-depleted cell fraction was labeled with streptavidin-APC-Cy7 antibody from BD Biosciences and c-kit-APC, Sca-1-FITC, CD48-Pacific Blue, and CD150 PE-Cy7 antibodies from eBioscience. DsRed-positive lineage-Sca-1+c-kit+CD48− HSCs were sorted using a FACS DiVa or FACS ARIA (BD Biosciences).
A total of 20 μL of 20 μg/mL fibronectin (Millipore) in PBS was added to each well of a 384-well clear-bottomed black tissue-culture treated plate (Corning) and incubated for 30-120 minutes at 33° C. or 37° C. […] The fibronectin solution was removed from each well using a 24-channel wand aspirator; then 30 μL of BMSC solution was added to plate 2000 BMSCs/well. […] Each plate was covered with a sterile rayon breathable membrane (VWR) and plastic lid, and then spun at 500 rpm (approximately 60× gravity) with slow braking. The plates were incubated at room temperature for 60-90 minutes before incubation at 33° C. with 5% CO2 for 3 days prior to HSC addition.
The sorted HSCs, SLAMs and progenitor cells were resuspended in phenol-red free alpha-MEM with 20% FBS and diluted to 10,000 cells/mL. A total of 20 μL of cell solution containing 200 hematopoietic cells was added to each well using a multichannel pipettor or liquid-dispensing system. Each plate was covered with a sterile rayon breathable membrane (VWR) and plastic lid, and then spun at 500 rpm (approximately 60×gravity) with slow braking. The plates were incubated at room temperature for 60-90 minutes before incubation at 33° C. with 5% CO2 overnight prior to compound or cytokine addition.
Image analysis was performed using MetaXpress software from MDC and CellProfiler software from the Broad Institute of Harvard and MIT.
Compound addition and incubation was performed as described for the LSC coculture screen above, but without a media change or readdition of the compound.
The selected set was screened in 8-point dose against both normal HSPCs with a high number of replicates (6) and LSC-enriched leukemia cells, each cocultured on primary MSCs.

The test system of series [8] is CD34+ cells from primary human leukemia samples. Put plainly: Human CD34+ CAFC assay, leukemia samples. Type of series: cell-based. The settings on record: 1.25 μM to 10 μM, 18 hours exposure, read at 5 weeks (2 weeks FLT3-ITD).
Experimental: Samples were centrifuged over Ficoll-Paque PLUS (GE Heathcare) step gradient (2000×g for 30 min in 50 ml tubes) to obtain mononuclear cells and then CD34^+ cells were selected with immunomagnetic beads (MACS Cell Separation, Miltenyi Biotec, Auburn, Calif.), except in one case, NPM1 mutation, which was CD34^− by flow cytometry and mononuclear cells were used. 50,000 cells were placed into 12.5 cm^2 flasks (Becton Dickinson Labware, Franklin Lakes, N.J.) in co-culture with the MS-5 mouse bone marrow-derived stromal cell line (kindly provided by Dr. Itoh, Dept. of Biology, Niigata University, Japan) and DMSO control and the number of final cobblestones was later read. The number of cells needed to form one cobblestone was then placed in triplicate for each sample with each drug at serial drug dilutions from 10 μM to 0.63 μM as well as with DMSO 0.5% for control purposes and incubated overnight with Iscove's modified Dulbecco's medium (IMDM, in house media preparation laboratory)+20% fetal calf serum (FCS, Atlanta Biologicals, Lawrenceville, Ga.) with glutamine (2 mM/ml, in house media preparation laboratory), monothioglycerol (MTG, 10 nM/ml, Sigma Cell Culture, St. Louis Mo.), c-Kit ligand (20 ng/ml, Amgen, Thousand Oaks, Calif.), Flt ligand (20 ng/ml, Imclone, Bridgewater, N.J.), TPO (20 ng/ml, Amgen) and IL-3 (20 ng/ml, Amgen). Cells were then washed to remove the drugs and placed into 96 well cell culture plates (Becton Dickinson) with α-MEM (in house media preparation laboratory)+12.5% FCS+12.5% horse serum (Gemini Bio-products, West Sacramento, Calif.) with glutamine, MTG, hydrocortisone (1 nM/ml, Sigma) and IL-3 in co-culture with MS-5 stromal cells. […] The same procedure was followed with normal CD34+ cells obtained from cord blood.
as §3

Entries after “also recorded” stand apart in the source; their conditions may differ. Read-outs that look alike come from different tables or passages of the source. Bounds are passed on as bounds.

Take `COc1cccc2c1C(=O)c1c(O)c3c(c(O)c1C2=O)C[C@@](O)(C(C)=O)C[C@@H]3O[C@H]1C[C@H](N)[C@H](O)[C@H](C)O1` [Daunorubicin]: the IC50 amounted to 50 nM in series [1] (Mus musculus) and 20 nM in series [2] (Homo sapiens, 168 h).

As for `Nc1ccn([C@@H]2O[C@H](CO)[C@@H](O)[C@@H]2O)c(=O)n1` [Ara-C], the IC50 in series [3] worked out at 2500 nM; in series [1] (normal murine HSPCs in triple coculture with LSCs on primary MSCs), 5000 nM; in series [2] (normal human hematopoietic progenitors, 7 days), 2500 nM. The “toxicity to hematopoietic progenitor cells” value in series [2] (7 days of exposure, viability relative to DMSO) was “kill progenitors; also recorded: displayed toxicity”.

Turning to `COC(=O)Nc1nc2cc(SC(C)C)ccc2[nH]1` [Methiazole], in series [4], the “activity against AML cell lines” value is “strong activity”. Also, the IC50 was < 625 nM in series [4]; 466 nM in series [5] (MLL-AF9, LSCs on primary MSC stroma, 8-point dose, read-out: Leukemia IC50); > 20000 nM in series [7] (read-out: Normal IC50, HSPCs on primary MSC stroma, 8-point dose). In addition, the “leukemia-selective activity in coculture vs normal HSPCs” value in series [5] is “leukemia-selective activity”. For the same molecule, the “toxicity against normal primary CD34+ cells (human CAFC)” value in series [6] is listed as “neither compound showed toxicity”. Moreover, the “leukemia cobblestone inhibition (human CAFC)” value in series [8] was “leukemia cobblestone inhibition was observed across all six primary leukemia samples”.

In the case of `CCCCc1ccc2[nH]c(NC(=O)OC)nc2c1` [Parbendazole], the “activity against AML cell lines” value in series [4] is reported as “strong activity”. For the same molecule, the IC50 in series [4] was < 625 nM; in series [5] (MLL-AF9, read-out: Leukemia IC50) it was 76 nM; in series [7] (read-out: Normal IC50), > 20000 nM. Moreover, the “leukemia-selective activity in coculture vs normal HSPCs” value in series [5] is listed as “leukemia-selective activity”. The “toxicity against normal primary CD34+ cells (human CAFC)” value in series [6] is on record as “neither compound showed toxicity”. Further, in series [8], the “leukemia cobblestone inhibition (human CAFC)” value is “leukemia cobblestone inhibition was observed across all six primary leukemia samples”.

The values above are taken from US20130338092A1, “COMPOUNDS AND METHODS FOR TARGETING LEUKEMIC STEM CELLS” (The Broad Institute, Inc., priority 2011, published 2013).
